# According to PMC10941260 (RSC Advances, 2024):
# Read-outs that look alike come from different tables or passages of the source.
# Key:
# AChE [1] = target: T1, AChE (Electrophorus electricus, UniProt O42275); assay: Cholinesterase inhibition assay; format: biochemical, electric eels; conditions: for fold decrease in potency against AChE: compared to the most potent compound (a11)
# MAO-B [2] = target: T2, MAO-B (Mus musculus, UniProt Q8BW75); assay: Monoamine oxidase B inhibition assay; format: biochemical, Mice; conditions: compared to the most potent compound (a12)
# T2 sequence (Q8BW75 2-520): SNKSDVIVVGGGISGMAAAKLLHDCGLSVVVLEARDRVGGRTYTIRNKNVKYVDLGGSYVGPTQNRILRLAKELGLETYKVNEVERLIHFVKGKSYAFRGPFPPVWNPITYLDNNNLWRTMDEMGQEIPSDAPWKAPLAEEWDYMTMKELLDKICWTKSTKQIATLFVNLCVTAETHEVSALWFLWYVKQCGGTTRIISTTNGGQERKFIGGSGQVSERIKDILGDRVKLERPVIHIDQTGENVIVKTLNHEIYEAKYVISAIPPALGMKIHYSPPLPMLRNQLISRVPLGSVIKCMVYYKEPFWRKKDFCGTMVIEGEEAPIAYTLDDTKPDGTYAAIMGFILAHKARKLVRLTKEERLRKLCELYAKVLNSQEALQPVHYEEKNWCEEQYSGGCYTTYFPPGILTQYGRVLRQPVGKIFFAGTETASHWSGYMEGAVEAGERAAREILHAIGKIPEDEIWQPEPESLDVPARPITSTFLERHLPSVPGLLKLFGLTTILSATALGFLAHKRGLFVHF
# MAO-A [3] = target: T3, MAO-A (Mus musculus, UniProt Q64133); assay: Monoamine oxidase A inhibition assay; format: biochemical, Mice; conditions: compared to (a3)
# T3 sequence (Q64133 1-526): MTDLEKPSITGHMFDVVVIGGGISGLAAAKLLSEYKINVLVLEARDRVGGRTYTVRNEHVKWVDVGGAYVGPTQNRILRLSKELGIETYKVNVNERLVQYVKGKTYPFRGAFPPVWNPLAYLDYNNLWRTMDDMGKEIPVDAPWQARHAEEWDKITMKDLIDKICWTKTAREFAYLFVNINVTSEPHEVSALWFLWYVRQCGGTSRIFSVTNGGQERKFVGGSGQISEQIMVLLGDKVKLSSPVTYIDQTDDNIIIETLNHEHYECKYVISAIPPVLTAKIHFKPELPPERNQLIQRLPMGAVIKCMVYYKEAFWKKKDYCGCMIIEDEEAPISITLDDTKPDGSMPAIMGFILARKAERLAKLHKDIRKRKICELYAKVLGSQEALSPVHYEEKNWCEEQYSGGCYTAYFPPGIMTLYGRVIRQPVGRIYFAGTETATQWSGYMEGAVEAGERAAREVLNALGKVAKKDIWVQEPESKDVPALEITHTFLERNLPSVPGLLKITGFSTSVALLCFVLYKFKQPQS
# BChE [4] = target: T4, BChE (Equus caballus, UniProt P81908); assay: Cholinesterase inhibition assay; format: biochemical, horse; conditions: for fold decrease in activity against BChE: compared to the di-methoxy substituted compound, printed as (a5)
# MAO-A [5] = assay: Enzyme kinetic study; format: biochemical; conditions: Lineweaver-Burk plot, substrate p-tyramine
# AChE [6] = target: T1, AChE; assay: Enzyme kinetic study; format: biochemical; conditions: Lineweaver-Burk plot, substrate ATCII
# BChE [7] = target: T4, BChE; assay: Enzyme kinetic study; format: biochemical; conditions: Lineweaver-Burk plot, substrate BTCII
# MAO-B [8] = assay: Enzyme kinetic study; format: biochemical; conditions: Lineweaver-Burk plot, substrate p-tyramine
# [9] = read-out: IC50 BChE, N/A = Not active (footnote b)
# T4 sequence (P81908 whole entry): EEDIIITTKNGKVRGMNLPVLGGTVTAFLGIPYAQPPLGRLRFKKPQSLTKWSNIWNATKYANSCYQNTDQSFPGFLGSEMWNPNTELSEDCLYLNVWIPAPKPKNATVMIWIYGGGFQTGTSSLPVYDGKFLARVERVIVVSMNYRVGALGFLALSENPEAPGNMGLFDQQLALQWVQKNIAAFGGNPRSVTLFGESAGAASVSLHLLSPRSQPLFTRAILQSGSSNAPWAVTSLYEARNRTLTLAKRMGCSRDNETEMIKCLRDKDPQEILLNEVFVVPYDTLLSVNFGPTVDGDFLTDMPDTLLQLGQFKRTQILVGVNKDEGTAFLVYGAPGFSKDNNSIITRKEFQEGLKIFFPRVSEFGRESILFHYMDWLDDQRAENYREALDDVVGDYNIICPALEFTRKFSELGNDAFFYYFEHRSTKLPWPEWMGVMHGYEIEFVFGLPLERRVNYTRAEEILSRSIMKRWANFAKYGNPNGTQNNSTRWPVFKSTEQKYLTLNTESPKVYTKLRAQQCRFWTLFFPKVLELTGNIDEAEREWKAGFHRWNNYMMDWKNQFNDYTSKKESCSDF
# T1 sequence (O42275 24-633): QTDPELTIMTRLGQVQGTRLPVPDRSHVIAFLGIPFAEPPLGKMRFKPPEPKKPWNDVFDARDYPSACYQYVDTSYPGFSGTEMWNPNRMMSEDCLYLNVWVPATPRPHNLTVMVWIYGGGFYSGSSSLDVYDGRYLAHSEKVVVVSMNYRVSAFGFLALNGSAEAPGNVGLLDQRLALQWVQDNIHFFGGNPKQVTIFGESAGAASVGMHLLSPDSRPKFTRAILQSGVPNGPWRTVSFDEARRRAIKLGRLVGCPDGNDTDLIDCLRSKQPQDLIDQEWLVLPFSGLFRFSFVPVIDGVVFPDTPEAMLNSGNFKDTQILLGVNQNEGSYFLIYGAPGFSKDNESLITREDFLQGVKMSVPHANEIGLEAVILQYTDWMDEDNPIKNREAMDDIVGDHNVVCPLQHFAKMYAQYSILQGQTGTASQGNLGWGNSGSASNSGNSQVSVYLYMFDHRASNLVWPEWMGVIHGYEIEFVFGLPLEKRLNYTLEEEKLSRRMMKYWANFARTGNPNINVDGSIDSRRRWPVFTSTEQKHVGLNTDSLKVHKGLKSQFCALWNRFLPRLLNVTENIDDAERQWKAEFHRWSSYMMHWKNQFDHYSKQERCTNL
Compound,IC50 (AChE [1]),fold decrease in potency against AChE (AChE [1]),IC50 (AChE [1]; read-out: IC50 AChE),further results
"O=S(=O)(Nc1cccc(I)c1)c1cccc2cccnc12 [a1, N-(3-Iodophenyl)quinoline-8-sulfonamide]",1.11 ± 0.57 µM,~2 fold,,
"Cc1ccc(F)c(CNS(=O)(=O)c2cccc3cccnc23)c1 [a2, N-(2-Fluoro-5-methylphenzyl)quinoline-8-sulfonamide]",,~3 fold,2.58 ± 0.97 µM,fold reduction in potency against MAO-B (MAO-B [2]): 4 fold; fold decrease in activity against MAO-A (MAO-A [3]): 4 fold
"O=S(=O)(NCc1ccc(Cl)cc1)c1cccc2cccnc12 [a4, N-(4-Chlorobenzyl)quinoline-8-sulfonamide]",2.18 ± 1.17 µM,~4 fold,,
"O=S(=O)(NCc1cccc(Cl)c1)c1cccc2cccnc12 [a5, N-(3-Chlorobenzyl)quinoline-8-sulfonamide]",1.95 ± 1.07 µM,~4 fold,,IC50 (BChE [4]): 2.84 ± 1.07 µM; fold decrease in activity against BChE (BChE [4]): ~2 fold; mode of inhibition toward MAO-A (MAO-A [5]): competitive inhibition
"O=S(=O)(Nc1ccc(I)cc1)c1cccc2cccnc12 [a8, N-(4-Iodophenyl)quinoline-8-sulfonamide]",1.15 ± 0.72 µM,~2 fold,,
"N#Cc1ccc(NS(=O)(=O)c2cccc3cccnc23)cc1 [a9, N-(4-Cyanophenyl)quinoline-8-sulfonamide]",3.78 ± 0.92 µM,7 fold,,
"O=S(=O)(NCC1CCCCC1)c1cccc2cccnc12 [a10, N-(Cyclohexylmethyl)quinoline-8-sulfonamide]",1.36 ± 0.77 µM,,,
"O=S(=O)(NCc1cc(F)cc(C(F)(F)F)c1)c1cccc2cccnc12 [a14, N-(3-Fluoro-5-(trifluoromethyl)benzyl)quinoline-8-sulfonamide]",,,3.06 ± 0.77 µM,IC50 (BChE [4]; [9]): 1.18 ± 0.57 µM
"O=S(=O)(NCc1ccc(Cl)cc1Cl)c1cccc2cccnc12 [a15, N-(2,4-Dichlorobenzyl)-8-quinolinesulfonamide]",1.4 ± 0.54 µM,~2.5 fold,,
"O=S(=O)(NCc1ccccc1Cl)c1cccc2cccnc12 [a16, N-(2-Chlorobenzyl)-8-quinolinesulfonamide]",1.92 ± 0.87 µM,~4 fold,,
"COc1ccc(CNS(=O)(=O)c2cccc3cccnc23)cc1 [a18, N-(4-Methoxybenzyl)-8-quinolinesulfonamide]",1.01 ± 0.61 µM,2 fold,,IC50 (BChE [4]): 2.78 ± 0.92 µM; fold decrease in activity against BChE (BChE [4]): 2 fold
"N-(2,3-Dihydro-1H-benzo[d]imidazole-2-yl)quinoline-8-sulfonamide [a7]",,,1.73 ± 0.87 µM,fold reduction in potency against MAO-B (MAO-B [2]): 2 fold
"N-(2,6-Difluorophenyl)quinoline-8-sulfonamide [a3]",,~3 fold,1.01 ± 0.59 µM,fold reduction in potency against MAO-B (MAO-B [2]): 4 fold
N-(2-Fluorobenzyl)quinoline-8-sulfonamide [a13],,3 fold,1.65 ± 0.97 µM,fold reduction in potency against MAO-B (MAO-B [2]): 3 fold; fold decrease in activity against MAO-A (MAO-A [3]): 2 fold
N-(2-Hydroxyphenyl)quinoline-8-sulfonamide [a11],,,0.58 ± 0.05 µM,fold reduction in potency against MAO-B (MAO-B [2]): 2 fold; mode of inhibition toward AChE (AChE [6]): competitive inhibition
"N-(3,4-Dimethoxybenzyl)quinoline-8-sulfonamide [a6]",,2 fold,1.11 ± 0.47 µM,IC50 (BChE [4]; [9]): 1.1 ± 0.89 µM; mode of inhibition toward BChE (BChE [7]): competitive inhibition
N-(4-Florobenzyl)-8-quinolinesulfonamide [a12],,,2.65 ± 0.97 µM,IC50 (BChE [4]; [9]): 1.16 ± 0.77 µM; fold decrease in activity against MAO-A (MAO-A [3]): 2 fold; mode of inhibition toward MAO-B (MAO-B [8]): competitive inhibition
